Test results published in patent US6773893B1, “Human ABC1 promoter and assays based thereon” (The Trustees of Columbia University in the City of New York, priority 2000, dated 2004).
“Also recorded” adds a separate entry of the source.

Key:
hABC1 promoter [1] = assay: hABC1 promoter-luciferase reporter in RAW 264.7 cells; assay type: cell-based, mouse; settings: for hABC1 promoter activity compared to basal conditions: 10 μM, Firefly/Renilla luciferase ratio vs ethanol; for hABC1 promoter induction (summary statement): RAW macrophages, upstream promoter (-469 bp)
Experimental: In FIG. 5A a fragment of the hABC1 promoter ([…] to +101 bp) was linked to Firefly luciferase reporter gene. The resulting plasmid was cotransfected with a control reporter plasmid (Renilla luciferase) in the mouse macrophage-like RAW 264.7 cells. Four independent transfections experiments (each in triplicates) were performed. The results are expressed as a ratio between the Firefly and Renilla luciferase activities. Cells were treated with vehicle or 22(R)-Hch (10 μM), 9CRA (10 μM) and 22(R)-Hch (10 μM)+9CRA (10 μM), 24 hours in FBS medium complemented with 10% LPDS. […] Two independent experiments in triplicate were performed according to the protocol described in (a), using a shorter promoter: […] +101 pb. […] The same experiments as (a) were performed using 22(R)-Hch (10 μM), 25-Hch (10 μM), 7K-Ch (10 μM) and 9CRA (10 μM). Three to four independent experiments in duplicate or triplicate were performed. Mann Whitney tests were mean to analyze the difference between “Ethanol” and “Treatment”. In these Figures, ***=P<0.001,*=P<0.05.
(§1) The cell lines were purchased from ATCC (Rockville, Md., USA). The murine RAW 264.7, African green monkey CV-1, and human 293 or HepG2 cell lines were maintained in Dulbecco's modified Eagle's medium (DMEM) with 10% Fetal Bovine Serum (FBS), 100 U/ml penicillin and […] streptomycin. THP-1 cells were maintained in RPMI-1640 containing L-glutamine, 10% heat inactivated FBS, 100 U/ml penicillin and […] streptomycin supplemented with 0.5 mM B-mercaptoethanol. Confluent cells were differentiated with 0.2 mM phorbol 12-myristate 13-acetate (Sigma Chemical Co., St Louis, Mo., USA) in ethanol during 72 hours. Thioglycollate-elicited peritoneal macrophages were isolated from C57 Bl/6 mice as described (31).
(§2) Transfections were performed in 24-wells plates with Lipofectamine reagent (transactivation experiments in CV-1 and 293 cells, FIG. 6-7) or Lipofectamine-Plus reagent (Basal activation experiments in RAW 264.7, FIG. 5) according to the manufacturer's instructions (Life Technologies, Grand Island, N.Y., USA). For basal activation experiments a total of […] of reporter DNA and 0.05 mg of PRL-CMV(Renilla) (Promega Corp., Madison, Wis., USA) per well were used. For transactivation studies we used, per well, 0.025 mg of PRL-CMV, 0.2 mg of reporter DNA and 0.1 mg of each receptors (CMX-hRXRα, CMX-hLXRα, CMV-mLXRβ) or 0.2 mg of pcDNA3. The transfected cells were cultured in lipoprotein deficient serum (LPDS) medium in the presence of […] of 22(R)-hydroxycholesterol (22(R)-HCh), 25-hydroxycholesterol (25-HCh) or 7-ketocholesterol (7-KCh), […] 9-cis retinoic acid (9CRA) (Sigma Chemical Co., St Louis, Mo., USA) or ethanol alone for 24 hours. The luciferase activities were measured using Promega Dual Luciferase assay system. Reporter plasmid used to analyse the activity of hABC1 promoter was constructed by subcloning a 1029 bp PCR fragment of hABC1 promoter (−928 bp +101 bp) into pGL3-Luc basic vector (Promega). […] A shorter promoter (−469 bp to +101 bp) was generated by digestion of this plasmid with Sac1. Where shown, error bars represent the standard deviation.

hABC1 promoter [2] = assay: hABC1 promoter (-469 bp +101 bp) luciferase reporter in 293 cells with or without LXR/RXR; assay type: cell-based, human; settings: for upregulation of the hABC1 promoter: 293 cells without transfected LXR/hRXR, 10 μM, 24 h
Experimental: as §1, §2

[3] = tested on: LXR/hRXRα binding site of the CETP promoter; assay: Luciferase reporter with 3 copies of the LXR responsive element of the CETP promoter in 293 cells; assay type: cell-based, human; settings: for increase in luciferase activity: absence of transfected receptors
Experimental: as §2

[4] = tested on: hABC1 mRNA in THP-1 macrophages; assay: Northern blot of ABC1 mRNA in THP-1 macrophages; assay type: cell-based, human; parameters: dose or concentration left out as unconfirmed; settings: 24 h, vs ethanol
Experimental: as §1

LXR = settings: from cited references; cited from earlier work
SF1 = SF1 (Homo sapiens, UniProt Q13285); settings: from cited references; cited from earlier work
Chain of SF1 (Q13285 whole entry): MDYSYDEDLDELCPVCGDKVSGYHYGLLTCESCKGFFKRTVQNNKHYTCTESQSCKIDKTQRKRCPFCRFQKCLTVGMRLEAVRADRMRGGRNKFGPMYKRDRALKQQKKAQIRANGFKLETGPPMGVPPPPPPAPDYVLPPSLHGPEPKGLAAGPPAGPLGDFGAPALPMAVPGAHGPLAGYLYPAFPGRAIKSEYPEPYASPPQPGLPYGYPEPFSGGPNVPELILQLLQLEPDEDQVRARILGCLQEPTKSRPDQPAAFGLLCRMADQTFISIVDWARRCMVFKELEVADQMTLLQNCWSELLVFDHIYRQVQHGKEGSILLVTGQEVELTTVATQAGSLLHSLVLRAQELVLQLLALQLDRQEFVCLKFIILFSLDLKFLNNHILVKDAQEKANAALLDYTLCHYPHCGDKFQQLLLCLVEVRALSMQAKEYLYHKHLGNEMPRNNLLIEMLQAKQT

hABC1 promoter [5] = assay: Transactivation of the hABC1 promoter by LXR/RXR in CV-1 cells; assay type: cell-based, human
Experimental: as §2, with “The cell lines were purchased from ATCC (Rockville, Md., USA). The murine RAW 264.7, African green monkey CV-1, and human 293 or HepG2 cell lines were maintained in Dulbecco's modified Eagle's medium (DMEM) with 10% Fetal Bovine Serum (FBS), 100 U/ml penicillin and […] streptomycin. THP-1 cells were maintained in RPMI-1640 containing L-glutamine, 10% heat inactivated FBS, 100 U/ml penicillin and […] streptomycin supplemented with 0.5 mM B-mercaptoethanol. Confluent cells were differentiated with 0.2 mM phorbol 12-myristate 13-acetate (Sigma Chemical Co., St Louis, Mo., USA) in ethanol during 72 hours. Thioglycollate-elicited peritoneal macrophages were isolated from C57 Bl/6 mice as described (31). Transfections” for “Transfections”

Compound	hABC1 promoter activity compared to basal conditions (hABC1 promoter [1]; RAW 264.7 cells, 24 h)	hABC1 promoter induction (summary statement) (hABC1 promoter [1]) [fold]	upregulation of the hABC1 promoter (hABC1 promoter [2]) [fold]	ABC1 mRNA induction [4] [fold]	increase in luciferase activity [3] [fold]	activator of LXR / LXR-RXR (LXR)	activator of SF1 (SF1)	further results
CC1=C(/C=C/C(C)=C\C=C\C(C)=C\C(=O)O)C(C)(C)CCC1 [9CRA, 9-cis retinoic acid]	8 fold	8	3.5	–	–	–	–	effect on hABC1 promoter activity with transfected receptors (hABC1 promoter [2]; 293 cells transfected with LXRα/hRXRα): no additional effect; activity compared to non-transfected cells ([3]; LXR transfected): no further increase in activity
9-cis retinoic acid [9CRA]	–	–	–	2	24	–	–	–
C[C@H](CCCC(C)(C)O)[C@H]1CC[C@H]2[C@@H]3CC=C4C[C@@H](O)CC[C@]4(C)[C@H]3CC[C@]12C [25-HCh, 25-hydroxycholesterol]	1.5 fold	–	–	–	–	poor activator	good activator	–
CC(C)CCC[C@@H](C)[C@H]1CC[C@H]2[C@@H]3C(=O)C=C4C[C@@H](O)CC[C@]4(C)[C@H]3CC[C@]12C [7-KCh, 7-ketocholesterol]	No significant effect; also recorded: poor activator	–	–	–	–	–	–	hABC1 promoter activity compared to 9CRA alone (hABC1 promoter [1]; RAW 264.7 cells, sterol in combination with 9CRA (10 μM each), 24 h): 2 fold
C[C@@H](CO)CCC[C@@H](C)[C@H]1CC[C@H]2[C@@H]3CC=C4C[C@@H](O)CC[C@]4(C)[C@H]3CC[C@]12C [27-HCh]	–	–	–	–	–	relatively poor activator	–	–
CC(C)CC[C@@H](O)[C@@H](C)[C@H]1CC[C@H]2[C@@H]3CC=C4C[C@@H](O)CC[C@]4(C)[C@H]3CC[C@]12C [22(R)-HCh, 22(R)-hydroxycholesterol]	7 fold	7	4.5	2	14	good activator	poor activator	transactivation of the hABC1 promoter compared to the control with no receptor (hABC1 promoter [5]; CV-1 cells cotransfected with hRXRα/LXRα): 6 fold; transactivation of the hABC1 promoter compared to the control with no receptor (hABC1 promoter [5]; CV-1 cells cotransfected with hRXRα/LXRβ): 8 fold; activation of the hABC1 promoter (hABC1 promoter [5]; CV-1 cells without transfected receptors): 4 fold
